Results as given in patent US9029359B2, “Heteroaryl Btk inhibitors” (Biogen Idec MA, Inc., priority 2009, dated 2015).

target: T1, BTK (Homo sapiens, UniProt Q06187); test: In vitro BTK kinase assay: BTK-POLYGAT-LS ASSAY; format: biochemical; details: ATP 10 uM
T1 construct: purchased Upstate 14-552
Procedure, shortened: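 BTK phosphorylation of polyGAT (100 nM final) with ATP at 10 μM final, 10 mM Tris-HCl pH 7.5 kinase buffer, quenched by EDTA after 30 min. Potency given as IC50.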

T1 sequence (Q06187 whole entry): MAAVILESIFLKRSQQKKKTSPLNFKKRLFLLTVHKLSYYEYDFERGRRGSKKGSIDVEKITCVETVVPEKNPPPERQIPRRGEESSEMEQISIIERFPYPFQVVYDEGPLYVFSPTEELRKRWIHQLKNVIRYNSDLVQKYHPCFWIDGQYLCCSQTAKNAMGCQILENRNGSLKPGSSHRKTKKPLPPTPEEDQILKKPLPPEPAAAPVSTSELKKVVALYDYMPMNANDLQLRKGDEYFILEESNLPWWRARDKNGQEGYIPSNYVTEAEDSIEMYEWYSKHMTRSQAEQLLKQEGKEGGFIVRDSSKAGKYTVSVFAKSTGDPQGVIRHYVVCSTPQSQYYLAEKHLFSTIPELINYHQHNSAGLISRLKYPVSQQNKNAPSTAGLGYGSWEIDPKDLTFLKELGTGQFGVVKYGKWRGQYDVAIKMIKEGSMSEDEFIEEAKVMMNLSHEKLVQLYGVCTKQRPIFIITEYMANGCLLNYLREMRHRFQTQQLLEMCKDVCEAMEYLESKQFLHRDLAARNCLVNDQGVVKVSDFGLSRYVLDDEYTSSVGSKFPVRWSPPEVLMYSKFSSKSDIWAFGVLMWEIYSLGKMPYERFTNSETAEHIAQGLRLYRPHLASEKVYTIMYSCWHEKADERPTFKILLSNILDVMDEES

Compound | IC50 [nM]
Cc1cccc(Cl)c1NCC(=O)N[C@@H]1CCCN(c2ncnc3[nH]ccc23)C1 [Example 407] | 1000 to 10000
C[C@@H](O)[C@@H](Nc1cc(F)cc(Cl)c1)C(=O)N[C@@H]1CCCN(c2ncnc3[nH]ccc23)C1 [Example 408] | 1000 to 10000
N#Cc1c(F)cccc1NCC(=O)N[C@@H]1CCCN(c2ncnc3[nH]ccc23)C1 [Example 409] | 1000 to 10000
O=C(CNc1c(F)ccc(F)c1F)N[C@@H]1CCCN(c2ncnc3[nH]ccc23)C1 [Example 411] | 100 to 999
N#Cc1ccc(NCC(=O)N[C@@H]2CCCN(c3ncnc4[nH]ccc34)C2)cc1 [Example 412] | 1000 to 10000
O=C(CNc1ccc(F)cc1)N[C@@H]1CCCN(c2ncnc3[nH]ccc23)C1 [Example 413] | 100 to 999
CCOc1ccc(OCC)c(NCC(=O)N[C@@H]2CCCN(c3ncnc4[nH]ccc34)C2)c1 [Example 414] | 1000 to 10000
Cc1cc(NCC(=O)N[C@@H]2CCCN(c3ncnc4[nH]ccc34)C2)ccc1Cl [Example 415] | 1000 to 10000
CC(C)(C)c1ccccc1NCC(=O)N[C@@H]1CCCN(c2ncnc3[nH]ccc23)C1 [Example 416] | 1000 to 10000
O=C(CNc1ccc(F)cc1Cl)N[C@@H]1CCCN(c2ncnc3[nH]ccc23)C1 [Example 417] | 100 to 999
O=C(CNc1ccc(Cl)cc1F)N[C@@H]1CCCN(c2ncnc3[nH]ccc23)C1 [Example 418] | 1000 to 10000
Cc1cc(Cl)ccc1NCC(=O)N[C@@H]1CCCN(c2ncnc3[nH]ccc23)C1 [Example 419] | 100 to 999
Cc1ccc(NCC(=O)N[C@@H]2CCCN(c3ncnc4[nH]ccc34)C2)c(F)c1 [Example 420] | 1000 to 10000
Cc1cccc(C)c1NCC(=O)N[C@@H]1CCCN(c2ncnc3[nH]ccc23)C1 [Example 421] | 1000 to 10000
O=C(CNc1cccc(F)c1F)N[C@@H]1CCCN(c2ncnc3[nH]ccc23)C1 [Example 422] | 100 to 999
O=C(CNc1cc(C(F)(F)F)ccc1N1CCCCC1)N[C@@H]1CCCN(c2ncnc3[nH]ccc23)C1 [Example 423] | 1000 to 10000
O=C(N[C@@H]1CCCN(c2ncnc3[nH]ccc23)C1)[C@@H](CO)Nc1cc(F)cc(Cl)c1 [Example 424] | 1000 to 10000
O=C(O)CC[C@@H](Nc1ccccc1)C(=O)N[C@@H]1CCCN(c2ncnc3[nH]ccc23)C1 [Example 425] | 1000 to 10000
Cc1ccc(NCC(=O)N[C@@H]2CCCN(c3ncnc4[nH]ccc34)C2)cc1 [Example 426] | 100 to 999
Cc1ccc(C)c(NCC(=O)N[C@@H]2CCCN(c3ncnc4[nH]ccc34)C2)c1 [Example 427] | 1000 to 10000
Cc1cc(C)c(NCC(=O)N[C@@H]2CCCN(c3ncnc4[nH]ccc34)C2)c(C)c1 [Example 428] | 1000 to 10000
O=C(CNc1cccc(N2CCCCC2)c1)N[C@@H]1CCCN(c2ncnc3[nH]ccc23)C1 [Example 429] | 1000 to 10000

More lines, now with the values ahead:

IC50 [nM] | Compound
1000 to 10000 | Cc1ccc(NCC(=O)N[C@@H]2CCCN(c3ncnc4[nH]ccc34)C2)c(Cl)c1 [Example 430]
1000 to 10000 | O=C(CNC(Cc1ccccc1)c1ccccc1)N[C@@H]1CCCN(c2ncnc3[nH]ccc23)C1 (some centres unmarked) [Example 431]
1000 to 10000 | O=C(CNc1cccc([N+](=O)[O-])c1)N[C@@H]1CCCN(c2ncnc3[nH]ccc23)C1 [Example 432]
1000 to 10000 | N#Cc1ccccc1NCC(=O)N[C@@H]1CCCN(c2ncnc3[nH]ccc23)C1 [Example 433]
1000 to 10000 | NC(=O)c1cccc(NCC(=O)N[C@@H]2CCCN(c3ncnc4[nH]ccc34)C2)c1 [Example 434]
1000 to 10000 | O=C(CNc1cccc(-c2cnco2)c1)N[C@@H]1CCCN(c2ncnc3[nH]ccc23)C1 [Example 435]
1000 to 10000 | Cc1nccc(-c2cccc(NCC(=O)N[C@@H]3CCCN(c4ncnc5[nH]ccc45)C3)c2)n1 [Example 436]
1000 to 10000 | O=C(CNc1cc(C(F)(F)F)ccc1F)N[C@@H]1CCCN(c2ncnc3[nH]ccc23)C1 [Example 437]
1000 to 10000 | O=C(CNc1c(F)cc(F)cc1F)N[C@@H]1CCCN(c2ncnc3[nH]ccc23)C1 [Example 438]
100 to 999 | CC(C)(C)c1cccc(NCC(=O)N[C@@H]2CCCN(c3ncnc4[nH]ccc34)C2)c1 [Example 440]
100 to 999 | O=C(CNc1cccc(OC(F)(F)C(F)F)c1)N[C@@H]1CCCN(c2ncnc3[nH]ccc23)C1 [Example 441]
1000 to 10000 | COc1ccc(C(C)(C)C)cc1NCC(=O)N[C@@H]1CCCN(c2ncnc3[nH]ccc23)C1 [Example 442]
1000 to 10000 | CC(C)c1ccc(NCC(=O)N[C@@H]2CCCN(c3ncnc4[nH]ccc34)C2)cc1 [Example 443]
1000 to 10000 | O=C(CNc1ccccc1N1CCOCC1)N[C@@H]1CCCN(c2ncnc3[nH]ccc23)C1 [Example 444]
100 to 999 | O=C(CNc1ccc(F)c(F)c1F)N[C@@H]1CCCN(c2ncnc3[nH]ccc23)C1 [Example 445]
100 to 999 | O=C(CNc1cc(F)ccc1F)N[C@@H]1CCCN(c2ncnc3[nH]ccc23)C1 [Example 446]

IC50 [nM] | Compound
1000 to 10000 | O=C(NC1CCCN(c2ncnc3[nH]ccc23)C1)[C@@H](CCCO)Nc1ccccc1 (some centres unmarked) [Example 447]
1000 to 10000 | O=C(N[C@@H]1CCCN(c2ncnc3[nH]ccc23)C1)C(Nc1ccccc1)C(F)(F)F (some centres unmarked) [Example 449]
1000 to 10000 | CS(=O)(=O)c1ccccc1NCC(=O)N[C@@H]1CCCN(c2ncnc3[nH]ccc23)C1 [Example 450]
1000 to 10000 | COc1ccc(C)c(NCC(=O)N[C@@H]2CCCN(c3ncnc4[nH]ccc34)C2)c1 [Example 451]
1000 to 10000 | COc1cccc(C)c1NCC(=O)N[C@@H]1CCCN(c2ncnc3[nH]ccc23)C1 [Example 452]
100 to 999 | O=C(CNc1cc(F)c(F)cc1F)N[C@@H]1CCCN(c2ncnc3[nH]ccc23)C1 [Example 453]
1000 to 10000 | O=C(CNc1ccc(F)cc1F)N[C@@H]1CCCN(c2ncnc3[nH]ccc23)C1 [Example 454]
100 to 999 | COCCOc1ccc(C(F)(F)F)cc1NCC(=O)N[C@@H]1CCCN(c2ncnc3[nH]ccc23)C1 [Example 455]
1000 to 10000 | CNS(=O)(=O)c1ccccc1NCC(=O)N[C@@H]1CCCN(c2ncnc3[nH]ccc23)C1 [Example 457]
1000 to 10000 | O=C(CNC1c2ccccc2-c2ccccc21)N[C@@H]1CCCN(c2ncnc3[nH]ccc23)C1 [Example 459]
1000 to 10000 | O=C(CNC(c1ccccc1)c1ccccc1)N[C@@H]1CCCN(c2ncnc3[nH]ccc23)C1 [Example 460]
1000 to 10000 | Cc1cccc(NC(C(=O)NC2CCCN(c3ncnc4[nH]ccc34)C2)C2CCCC2)c1 (centres unmarked) [Example 461]
> 10000 | O=C(CNc1ccccc1)NC1CCCN(c2ncnc3[nH]cc(Cl)c23)C1 (centres unmarked) [Example 462]
> 10000 | N#Cc1c(N)ncnc1N1CCCC(NC(=O)CNc2ccccc2)C1 (centres unmarked) [Example 463]
> 10000 | O=C(CNc1ccccc1)NC1CCCN(c2ncnc3[nH]cnc23)C1 (centres unmarked) [Example 464]
